The subject of one experiment is mice. The note with it: oral, anandamide 300 mgkg body weight−1, 2-arachidonoyl glycerol 400 mgkg body weight−1; cited from earlier work.
The next experiment relates to animals. To be noted: injected into animals; cited from earlier work.
Experiment [1] can be described thus: Effects of oral administration of cannabimimetic lipids on ambulation, rearing, immobility, analgesia, body temperature and fecal output (FIG. 3-5). The note with it: for immobility, difference from control group / rearing, difference from control group / body temperature, difference from control group: p<0.01-0.05, ANOVA, Newman-Keuls. It is filed as in vivo.
Another experiment deals with male Rj:NMRI mice. Put plainly: ELEVATED PLUS MAZE TEST, number of entries in the closed arms. It counts as in vivo. To be noted: for Number of Entries in the Closed Arms, average entries: diets for 42 days, agent intraperitoneally 60 minutes before test. The protocol:
In order to show the biological activity of the composition of the present invention on animal's behaviour the effect of dietary poly-unsaturated fatty acids with and without a CB-1 receptor antagonist on anxiolytic-like responses in mice were tested. To this end, the ELEVATED PLUS MAZE TEST was applied (adapted after Handley and Mithani (Naunyn. Schmied. Arch. Pharmacol. 327: 1-5, 1984).
For the experiments male Rj:NMRI mice, obtained from Elevage Janvier, Le Genest-Saint-Isle France and weighing 10-11 g at delivery and 33-51 grams on day 42 were used. The mice were housed 10 per cage in wire cages with bedding and normal light cycle. They received ad libitum quantities of bottled distilled water and purified powdered diets (7.5 g/mouse) in ceramic cups (10/group) for 42 days. The Food was maintained at −80° C. in daily aliquots under nitrogen, thawed each afternoon before administration to mice. Uneaten food was discarded daily.
The principle of the test resides in that anxiolytic agents increase the number of entries into the open and often the closed arms of the […], mice should want to move and explore the spaces of the open and closed arms rather than staying still in the middle).
Mice were given the following agents intraperitoneally 60 minutes before the Plus Maze test:
All diets contained 90% fat-free AIN93G rodent diet in powder form (Lot 9350-5, Dyets, Inc., Bethlehem, Pa.), 0.4% milk fat, 1.2% palm olein, 1.9% Trisun sunflower oil, 1.5% soybean oil and 2.1-5.1% medium chain triacylglycerol oil. Parts of the medium chain triacylglycerol oil were replaced with 1.1% algal oil (providing 0.5 dietary wt.-% arachidonic acid) in diet D, 1.9% fish oil (providing 0.5 dietary wt.-% docosahexaenoic acid) in diet E, and with 1.1% algal oil and 1.9% fish oil in diets F and G. Dietary groups are summarized in the table below:
The body weight, weight gain and the food intake of the mice was monitored throughout the experiment. […]

Turning to 2 arachidonylglycerol [Diet 2-AG], the “bioactivity when taken orally” value in the experiment with mice is “have bioactivity”. In the experiment with animals, the “effects of pure doses when injected” value was “calming effects and effects on the immune system”. Besides, in experiment [1] (oral administration), the “immobility, difference from control group” value (“immobility, difference” for short) is given as “significantly different” and the “rearing, difference from control group” value is given as “significantly different”. In addition, in experiment [1], the “body temperature, difference from control group” value (“body temperature, difference” for short) is “significantly different”.

`Cc1c(C(=O)NN2CCCCC2)nn(-c2ccc(Cl)cc2Cl)c1-c1ccc(I)cc1` [C]: in the experiment on male Rj:NMRI mice, the “Number of Entries in the Closed Arms, average entries” value is reported as 2.3. In addition, the “Number of Entries in the Closed Arms, difference vs. group A” value with male Rj:NMRI mice (p-value = 0.19) is recorded as “There was no significant difference (p-value = 0.19)”.

Turning to `CN1C(=O)CC(=O)N(c2ccccc2)c2cc(Cl)ccc21` [Clobazam], the “Number of Entries in the Closed Arms, average entries” value in the experiment on male Rj:NMRI mice is on record as 6.3.

On to `CCCCCc1cc(O)c2c(c1)OC(C)(C)[C@@H]1CCC(C)=C[C@@H]21` [THC, 9-tetrahydrocannabinol], for which, in experiment [1] (oral administration), the analgesia result was “significantly increased analgesia”; the “immobility, difference” value is “significantly different”; the “rearing, difference from control group” value was “significantly different”. Moreover, the “body temperature, difference” value in experiment [1] is “significantly different”.

As for `CCCCCCCC/C=C\CCCCCCCC(N)=O` [oleamide], the “effects of pure doses when injected” value with animals is “calming effects and effects on the immune system”. Besides, in experiment [1] (oral administration), the “immobility, difference” value is on record as “significantly different” and the “rearing, difference from control group” value is reported as “significantly different”. In addition, the “body temperature, difference” value in experiment [1] is “significantly different”.

With N-arachidonylethanolamine [anandamide], the “bioactivity when taken orally” value in the experiment on mice is “have bioactivity”. The “effects of pure doses when injected” value with animals is “calming effects and effects on the immune system”. In addition, in experiment [1] (oral administration), the “immobility, difference” value was “significantly different” and the “rearing, difference from control group” value is listed as “significantly different”. Also, the “body temperature, difference” value in experiment [1] is on record as “significantly different”.

(Values after patent US8323680B1, “Nutritional composition” (Nestec S.A., priority 1999, dated 2012).)
